Measured values from patent US9951055B2, “Thiazole-based inhibitors of scavenger receptor BI” (THE BROAD INSTITUTE, INC., priority 2012, dated 2018).
Entries after “also recorded” stand apart in the source; their conditions may differ. Counter-ions that a name gives are not always drawn. Like-named read-outs stand apart in the source and are kept apart here.

Tests used:
[1] = target: T1, murine SR-BI (Mus musculus, UniProt Q61009); assay: DiI-HDL uptake assay (primary assay); format: cell-based
T1 construct: expressed in transfected cells; host or cells: ldlA[mSR-BI]; (CHO ldlA7 derivative lacking the LDL receptor)
T1 sequence (Q61009 1-509): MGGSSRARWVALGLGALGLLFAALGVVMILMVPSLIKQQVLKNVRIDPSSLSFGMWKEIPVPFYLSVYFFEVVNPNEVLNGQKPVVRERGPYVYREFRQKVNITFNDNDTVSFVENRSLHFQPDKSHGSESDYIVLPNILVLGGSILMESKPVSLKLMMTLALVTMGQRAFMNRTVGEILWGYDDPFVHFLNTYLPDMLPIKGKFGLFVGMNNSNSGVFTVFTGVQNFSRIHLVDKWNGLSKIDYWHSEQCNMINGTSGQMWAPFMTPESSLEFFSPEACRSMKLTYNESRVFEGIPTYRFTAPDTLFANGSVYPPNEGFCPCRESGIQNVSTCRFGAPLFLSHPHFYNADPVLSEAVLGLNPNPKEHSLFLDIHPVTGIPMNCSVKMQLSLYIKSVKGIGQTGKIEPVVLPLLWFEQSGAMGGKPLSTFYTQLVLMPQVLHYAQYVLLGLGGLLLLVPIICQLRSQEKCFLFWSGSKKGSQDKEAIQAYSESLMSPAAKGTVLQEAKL
Description: The following cell lines were used in this study: • ldlA[mSR-BI] is a Chinese hamster ovary (CHO) cell line that overexpresses murine SR-BI, isoform 1 (NP_058021) and was obtained from the Assay Provider (Krieger Laboratory). This cell line was used for the primary assay and several secondary assays. […] This cell line was obtained from the Assay Provider. Assays DiI-HDL Uptake Assay (Primary Assay AID Nos. 488896, 493194, 540354 588392, 588553, 588548, 588754, 588828, 588833)
ldlA[mSR-BI]cells were plated into 384-well plates at 30 μl per well and incubated overnight. As a measurable surrogate for cholesterol uptake, human HDL particles were treated with the lipophilic fluorescent dye DiI and exposed to ldlA[mSR-BI]cells in lipoprotein-free media (Ham's F12/0.5% fatty acid-free Bovine Serum Albumin (BSA)/25 mM HEPES pH 7.4 plus 10 μg protein/ml DiI-HDL). Cells took up the DiI via SR-BI over 3 hours in the presence of compound. After significant uptake of the DiI, the cells became fluorescent. The level of fluorescence correlates with the amount of DiI uptake and can be measured with a standard plate reader (here a PerkinElmer EnVision plate reader was used). The uptake of lipid (represented by DiI) was inhibited by the positive control compound BLT-1 or with an excess of HDL untreated with DiI. Primary HTS data were analyzed in Genedata Screener Assay Analyzer, and were normalized against DMSO and the positive control (1 μM BLT-1). For the HTS, the average of two replicates was used to rank order activity and to choose compounds for retests. For dose studies, percent (%) activity was determined for each concentration and the concentration response curves (CRCs) were generated with Genedata Condeseo.
To identify novel inhibitors, SR-BI-mediated lipid uptake was measured in an engineered cell line that minimized potential uptake by other mechanisms, including via the LDL receptor (1). ldlA[mSR-BI]cells overexpress murine isoform 1 and selectively take up HDL lipid at similar levels as “has been reported for cultured mouse adrenal cells, perfused organs, and liver, adrenal gland and ovary in vivo” (1). This primary cell-based assay was used in a pilot screen that identified BLTs 1 through 5 (12). The assay was slightly modified from the original protocol of Nieland et al. to increase throughput and to ease automation procedures.

[2] = tested on: Jc1 378-1 TagRFP reporter HCV virus; assay: In vitro inhibition of HCV in Huh-7.5 cells; format: cell-based, hepatitis C virus; conditions: for inhibition of HCV replication: Huh-7.5 cells, MOI=0.1, 3 dpi; for mean fluorescence intensity (MFI) of HCV positive cells: normalized to DMSO control
Procedure: The compound of formula (II) was also tested for the in vitro inhibition of HCV. Huh-7.5 cells were seeded in a 24-well plates (50,000 cells/well) and incubate over night. The medium was changed to compound/solvent containing medium 2 hours prior to infection (200 μL/well) with a reporter HCV virus called Jc1 378-1 TagRFP. A dilute virus stock was used to infect at a MOI of 0.1 (7,500 IU/well) in 10 μL medium. 10 μL of virus dilution was added to the wells containing compound/solvent (thereby dilution the compounds by only ˜5%). Infections were incubated for 4 hours before washing off the inoculum 1× with 500 μL medium. Fresh compound/solvent containing medium was added to the cells (500 μL/well), and further incubated for 48-72 hours. Cells were harvested at 48-72 hpi and viral replication was determined by fixing the cells and measuring replication by FACS (fluorescence activated cell sorting). Controls having antibodies that neutralize HCV by blocking E2 (2 μg/mL) and controls having antibodies that block a HCV receptor CD81 (2 μg/mL) were used.
A series of tests were conducted using the compound of Formula II ML278), other known inhibitors of SRB1 and controls with cells infected with hepatitis C virus (HCV). The cells (Huh-7.5 cells infected with Jc1 378-1 TagRFP (MOI=0.1) 3 dpi) were treated with the following SR-BI compounds and controls:
Three different infection protocols were followed: (1) no wash—virus inoculum was removed 4 hpi and fresh medium containing compounds added without washing cells; (2) 5× wash—virus inoculum was removed 4 hpi, cells were washed 5× with PBS and fresh medium containing compounds added; and (3) no wash Opt—infection were performed in serum-free OptiMem; virus inoculum was removed 4 hpi and fresh medium containing compounds added without washing cells. FIG. 107 provides a comparison of the three different infection set-ups. FIG. 108 provides a comparison of two independent experiments.

[3] = tested on: endocytosis of transferrin; assay: Transferrin endocytosis assay; format: cell-based
Description: Transferrin Endocytosis Assay (SA 3: AID No. 602134) This assay measures the endocytosis of an independent ligand, transferrin, which is not taken up via SR-BI but by clathrin-mediated endocytosis. This assay provides a measure of the selectivity of the inhibitors. Alexa-594-labeled transferrin is taken into the cell via endocytosis and localization of labeled transferrin was quantitated in the various intracellular compartments. […] Inhibitors of interest should act selectively at SR-BI and should have no activity in this assay. Cells were pre-treated with compound for 3 hours and then treated with the Alexa-594 transferrin reagent for 30 minutes (Catalog No. T-13343; Invitrogen) in serum-free media. Plates of cells were then placed onto ice, washed with ice cold PBS, and then fixed with 4% paraformaldehyde. In addition, the nuclei were stained with 300 nM 4′,6-diamidino-2-phenylindole (DAPI) (Catalog No. 21490; Invitrogen). The cells were imaged with the Molecular Devices IXM microscope (FIG. 22). Translocation measurements were performed using MetaExpress software and normalized for cell number.

SMILES: COc1cc(OC)cc(C(=O)Nc2nc(-c3ccc4c(c3)CCN4C(=O)OC(C)(C)C)cs2)c1 [Boc carbamate, tert-Butyl 5-(2-(3,5-dimethoxybenzamido)thiazol-4-yl)indoline-1-carboxylate]
- IC50 ([1]; read-out: IC50, DiI-HDL uptake): 0.9 nM

SMILES: CC(=O)Nc1ccc(Cl)c(C(=O)Nc2ccc(N3CCN(C(=O)OC(C)(C)C)CC3)cc2)c1 [Compound R-154716]
- inhibition of HCV replication ([2]; listed as SRB1-2): inhibited viral replication; also recorded: able to inhibit HCV replication
- mean fluorescence intensity (MFI) of HCV positive cells [2]: increased mean fluorescence intensity (MFI) of HCV positive cells in a dose dependent manner

SMILES: COc1c(NC(=O)C(=O)c2ccc(OCCN3CCOCC3)c3ccccc23)cc(C(C)(C)C)cc1NS(C)(=O)=O [ITX-5061]
- inhibition of HCV replication ([2]; listed as SRB1-9): inhibited viral replication; also recorded: able to inhibit HCV replication
- mean fluorescence intensity (MFI) of HCV positive cells [2]: this increase was not seen

SMILES: CCC(=O)N1CCc2cc(-c3csc(NC(=O)c4ccco4)n3)ccc21 [MLS001217863]
- endocytosis of transferrin [3]: not grossly perturbing cellular membrane trafficking pathways
- IC50 ([1]; range, read-out: range of IC50 for HDL-mediated lipid uptake): 0.93 to 6 nM

SMILES: COc1cc(OC)cc(C(=O)Nc2nc(-c3ccc4c(c3)CCN4)cs2)c1 [N-(4-(Indolin-5-yl)thiazol-2-yl)-3,5-dimethoxybenzamide, trifluoroacetic acid salt]
- loss of activity/potency relative to parent analog [1]: approximately 3 fold
